Measurements: publication PMC7901654, “Bioisosteric Discovery of NPA101.3, a Second-Generation RET/VEGFR2 Inhibitor Optimized for Single-Agent Polypharmacology” (Journal of Medicinal Chemistry, 2020)

How the values were obtained:
Test in all cases: KinomeScan panel screen
Type in all cases: binding
[1] = molecular target: T1, RPS6KA4(Kin.Dom.2-C-terminal) (Homo sapiens, UniProt O75676); settings: 100 nM, read-out: Percent Control
T1 construct: RPS6KA4(Kin.Dom.2-C-terminal); purchased DiscoveRx KINOMEscan (TRKA and CSF1R IC50 enzymes from Invitrogen)
Protocol: (§1) In addition, NPA101.3, at a concentration of 100 nM, was subjected to a kinome scan against a 96-kinase panel representing major kinome clusters (Table S2). The compound featured good selectivity, displaying strong binding activity (>90% bound) for only seven additional kinases [CSF1R (colony stimulating factor 1 receptor), FRK (fyn-related Src family tyrosine kinase), HCK (HCK proto-oncogene, Src family tyrosine kinase), LYN (lyn proto-oncogene, Src family tyrosine kinase), MKNK2 (MAPK-interacting serine/threonine kinase 2), TRKA (neurotrophic receptor tyrosine kinase 1), and TRKC (neurotrophic receptor tyrosine kinase 3)] and weak binding (>10–35% bound) for six other kinases (Table S2 and Figure S2). It is important to note that the measurement of binding affinity, which is based on control ligand displacement (Kd), is more sensitive than the in vitro kinase assay. Among the seven kinases with >90% binding, TRKA and CSF1R were selected for an in vitro kinase assay.
(§2) Supplementary Table S2: NPA101.3 KinomeScan Panel screen.
(§3) NPA101.3 was screened at a single concentration of 100 nM. Hits values lower than
(§4) 10% of control were considered strongly positive.
(§5) DiscoveRx Gene Entrez Gene Percent Compound
(§6) Symbol Symbol Control Concentration

[2] = molecular target: T2, TRKC (Homo sapiens, UniProt Q16288); settings: 100 nM
T2 construct: purchased DiscoveRx KINOMEscan (TRKA and CSF1R IC50 enzymes from Invitrogen)
T2 sequence (Q16288 32-839): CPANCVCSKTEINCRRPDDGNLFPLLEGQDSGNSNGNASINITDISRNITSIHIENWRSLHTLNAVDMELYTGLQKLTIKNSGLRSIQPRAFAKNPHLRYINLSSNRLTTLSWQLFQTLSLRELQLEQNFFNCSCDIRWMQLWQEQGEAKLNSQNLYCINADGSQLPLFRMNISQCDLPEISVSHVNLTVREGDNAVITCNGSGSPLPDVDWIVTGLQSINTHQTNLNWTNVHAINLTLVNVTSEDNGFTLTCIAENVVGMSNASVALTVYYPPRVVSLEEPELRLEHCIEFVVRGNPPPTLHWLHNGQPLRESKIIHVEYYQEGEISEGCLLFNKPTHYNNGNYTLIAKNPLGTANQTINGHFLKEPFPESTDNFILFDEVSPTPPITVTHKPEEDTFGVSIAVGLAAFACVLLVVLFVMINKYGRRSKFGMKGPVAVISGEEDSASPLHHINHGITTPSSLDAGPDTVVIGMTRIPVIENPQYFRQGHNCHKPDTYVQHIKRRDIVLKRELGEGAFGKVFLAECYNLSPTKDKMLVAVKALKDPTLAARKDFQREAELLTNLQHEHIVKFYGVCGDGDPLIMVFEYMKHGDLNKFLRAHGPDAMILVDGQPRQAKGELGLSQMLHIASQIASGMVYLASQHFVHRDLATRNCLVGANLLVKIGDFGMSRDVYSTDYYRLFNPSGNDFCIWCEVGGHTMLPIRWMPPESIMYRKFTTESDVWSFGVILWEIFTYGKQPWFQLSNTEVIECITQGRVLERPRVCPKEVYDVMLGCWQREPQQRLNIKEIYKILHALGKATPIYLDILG
Protocol: as §1, §2, §3, §4, §5, §6

[3] = molecular target: T3, CDK7 (Homo sapiens, UniProt P50613); settings: CDK7, 100 nM; read-out: Percent Control
T3 construct: purchased DiscoveRx KINOMEscan (TRKA and CSF1R IC50 enzymes from Invitrogen)
Protocol: as §1, §2, §3, §4, §5, §6

[4] = molecular target: T4, CSF1R (Homo sapiens, UniProt P07333); settings: 100 nM
T4 construct: purchased Invitrogen
T4 sequence (P07333 20-972): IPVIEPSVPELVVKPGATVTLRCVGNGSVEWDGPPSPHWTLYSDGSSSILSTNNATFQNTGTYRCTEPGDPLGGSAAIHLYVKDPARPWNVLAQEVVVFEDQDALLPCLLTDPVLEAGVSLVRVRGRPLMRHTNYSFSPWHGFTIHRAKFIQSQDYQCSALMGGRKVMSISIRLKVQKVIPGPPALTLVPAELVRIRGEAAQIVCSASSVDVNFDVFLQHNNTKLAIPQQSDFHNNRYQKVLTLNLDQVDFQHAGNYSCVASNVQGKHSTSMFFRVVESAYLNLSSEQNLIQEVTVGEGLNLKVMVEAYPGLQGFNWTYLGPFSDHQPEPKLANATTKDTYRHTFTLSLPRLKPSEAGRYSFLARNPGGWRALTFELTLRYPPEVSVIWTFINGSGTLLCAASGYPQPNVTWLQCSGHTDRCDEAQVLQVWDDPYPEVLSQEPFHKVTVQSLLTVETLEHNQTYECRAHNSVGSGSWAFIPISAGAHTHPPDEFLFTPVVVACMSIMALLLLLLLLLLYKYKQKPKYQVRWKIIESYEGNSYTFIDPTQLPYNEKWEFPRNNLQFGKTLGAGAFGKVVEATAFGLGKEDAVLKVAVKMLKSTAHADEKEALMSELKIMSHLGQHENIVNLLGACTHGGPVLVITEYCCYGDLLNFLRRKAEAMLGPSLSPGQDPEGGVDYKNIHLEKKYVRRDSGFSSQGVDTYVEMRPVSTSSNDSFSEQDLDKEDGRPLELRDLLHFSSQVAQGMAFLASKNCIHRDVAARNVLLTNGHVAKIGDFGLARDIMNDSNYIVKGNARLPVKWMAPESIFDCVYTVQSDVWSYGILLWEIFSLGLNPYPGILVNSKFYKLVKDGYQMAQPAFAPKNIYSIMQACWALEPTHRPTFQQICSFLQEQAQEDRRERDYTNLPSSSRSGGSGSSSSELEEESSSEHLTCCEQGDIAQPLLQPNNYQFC
Protocol: as §1, §2, §3, §4, §5, §6

[5] = molecular target: T5, NDR1 (Homo sapiens, UniProt Q15208); settings: NDR1, 100 nM; read-out: Percent Control
T5 construct: purchased DiscoveRx KINOMEscan (TRKA and CSF1R IC50 enzymes from Invitrogen)
T5 sequence (Q15208 whole entry): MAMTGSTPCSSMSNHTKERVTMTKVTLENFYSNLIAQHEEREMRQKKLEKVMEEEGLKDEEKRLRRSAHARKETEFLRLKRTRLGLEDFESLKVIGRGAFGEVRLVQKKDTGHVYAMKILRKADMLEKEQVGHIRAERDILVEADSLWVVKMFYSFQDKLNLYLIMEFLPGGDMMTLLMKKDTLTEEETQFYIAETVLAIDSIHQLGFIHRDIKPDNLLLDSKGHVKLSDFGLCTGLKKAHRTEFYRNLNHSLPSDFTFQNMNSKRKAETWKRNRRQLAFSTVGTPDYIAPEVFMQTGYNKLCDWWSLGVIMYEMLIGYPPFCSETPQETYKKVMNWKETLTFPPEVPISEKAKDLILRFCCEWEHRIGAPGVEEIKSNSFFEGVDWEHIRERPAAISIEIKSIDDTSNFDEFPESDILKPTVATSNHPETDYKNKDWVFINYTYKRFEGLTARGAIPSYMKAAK
Protocol: as §1, §2, §3, §4, §5, §6

[6] = molecular target: T6, MEK1 (Homo sapiens, UniProt Q02750); settings: MEK1, 100 nM; read-out: Percent Control
T6 construct: purchased DiscoveRx KINOMEscan (TRKA and CSF1R IC50 enzymes from Invitrogen)
Protocol: as §1, §2, §3, §4, §5, §6

[7] = molecular target: T7, SYK (Homo sapiens, UniProt P43405); settings: 100 nM, read-out: Percent Control
T7 construct: purchased DiscoveRx KINOMEscan (TRKA and CSF1R IC50 enzymes from Invitrogen)
Protocol: as §1, §2, §3, §4, §5, §6

[8] = molecular target: T8, EPHA1 (Homo sapiens, UniProt P21709); settings: EPHA1, 100 nM; read-out: Percent Control
T8 construct: purchased DiscoveRx KINOMEscan (TRKA and CSF1R IC50 enzymes from Invitrogen)
Protocol: as §1, §2, §3, §4, §5, §6

[9] = molecular target: T9, BMX (Homo sapiens, UniProt P51813); settings: 100 nM, read-out: Percent Control
T9 construct: purchased DiscoveRx KINOMEscan (TRKA and CSF1R IC50 enzymes from Invitrogen)
Protocol: as §1, §2, §3, §4, §5, §6

[10] = molecular target: T10, FAK (Homo sapiens, UniProt Q05397); settings: 100 nM, read-out: Percent Control
T10 construct: purchased DiscoveRx KINOMEscan (TRKA and CSF1R IC50 enzymes from Invitrogen)
Protocol: as §1, §2, §3, §4, §5, §6

[11] = molecular target: T11, CDK5 (Homo sapiens, UniProt Q00535); settings: CDK5, 100 nM; read-out: Percent Control
T11 construct: purchased DiscoveRx KINOMEscan (TRKA and CSF1R IC50 enzymes from Invitrogen)
Protocol: as §1, §2, §3, §4, §5, §6

[12] = molecular target: T12, EGFR (Homo sapiens, UniProt P00533); settings: 100 nM, read-out: Percent Control
T12 construct: purchased DiscoveRx KINOMEscan (TRKA and CSF1R IC50 enzymes from Invitrogen)
Protocol: as §1, §2, §3, §4, §5, §6

[13] = molecular target: T13, BRAF (Homo sapiens, UniProt P15056); settings: 100 nM, read-out: Percent Control
T13 construct: purchased DiscoveRx KINOMEscan (TRKA and CSF1R IC50 enzymes from Invitrogen)
T13 sequence (P15056 whole entry): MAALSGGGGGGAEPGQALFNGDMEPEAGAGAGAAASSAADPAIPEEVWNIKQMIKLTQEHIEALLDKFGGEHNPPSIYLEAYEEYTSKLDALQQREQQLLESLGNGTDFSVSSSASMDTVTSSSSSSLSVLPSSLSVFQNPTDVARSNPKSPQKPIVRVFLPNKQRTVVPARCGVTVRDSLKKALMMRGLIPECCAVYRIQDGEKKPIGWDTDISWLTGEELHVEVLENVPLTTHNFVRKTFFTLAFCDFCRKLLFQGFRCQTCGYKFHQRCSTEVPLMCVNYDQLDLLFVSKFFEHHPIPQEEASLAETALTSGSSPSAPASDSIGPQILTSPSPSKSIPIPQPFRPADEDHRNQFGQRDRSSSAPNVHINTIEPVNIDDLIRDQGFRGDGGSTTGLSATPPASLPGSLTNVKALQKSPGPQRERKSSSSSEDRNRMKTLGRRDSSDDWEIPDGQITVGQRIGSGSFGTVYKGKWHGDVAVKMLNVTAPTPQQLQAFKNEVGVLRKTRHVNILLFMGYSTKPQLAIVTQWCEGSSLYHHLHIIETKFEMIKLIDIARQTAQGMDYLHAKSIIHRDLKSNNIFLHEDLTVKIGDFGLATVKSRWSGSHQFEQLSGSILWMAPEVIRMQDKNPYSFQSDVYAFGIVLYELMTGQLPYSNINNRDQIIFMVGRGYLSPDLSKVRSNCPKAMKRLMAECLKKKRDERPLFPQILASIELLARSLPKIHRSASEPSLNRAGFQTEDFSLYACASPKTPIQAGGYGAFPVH
Protocol: as §1, §2, §3, §4, §5, §6

[14] = molecular target: T14, NEK2 (Homo sapiens, UniProt P51955); settings: NEK2, 100 nM; read-out: Percent Control
T14 construct: purchased DiscoveRx KINOMEscan (TRKA and CSF1R IC50 enzymes from Invitrogen)
Protocol: as §1, §2, §3, §4, §5, §6

[15] = molecular target: T15, AKT1 (Homo sapiens, UniProt P31749); settings: AKT1, 100 nM; read-out: Percent Control
T15 construct: purchased DiscoveRx KINOMEscan (TRKA and CSF1R IC50 enzymes from Invitrogen)
Protocol: as §1, §2, §3, §4, §5, §6

[16] = molecular target: T16, PKAC-beta (Homo sapiens, UniProt P22694); settings: 100 nM, read-out: Percent Control
T16 construct: purchased DiscoveRx KINOMEscan (TRKA and CSF1R IC50 enzymes from Invitrogen)
Protocol: as §1, §2, §3, §4, §5, §6

[17] = molecular target: T17, YANK2 (Homo sapiens, UniProt Q9NY57); settings: YANK2, 100 nM; read-out: Percent Control
T17 construct: purchased DiscoverX (outsourced KINOMEscan)
Protocol: as §1, §2, §3, §4, §5, §6

[18] = molecular target: T18, ULK2 (Homo sapiens, UniProt Q8IYT8); settings: ULK2, 100 nM; read-out: Percent Control
T18 construct: purchased DiscoverX (outsourced KINOMEscan)
Protocol: as §1, §2, §3, §4, §5, §6

[19] = molecular target: T19, TXK (Homo sapiens, UniProt P42681); settings: 100 nM, read-out: Percent Control
T19 construct: purchased DiscoverX (outsourced KINOMEscan)
T19 sequence (P42681 whole entry): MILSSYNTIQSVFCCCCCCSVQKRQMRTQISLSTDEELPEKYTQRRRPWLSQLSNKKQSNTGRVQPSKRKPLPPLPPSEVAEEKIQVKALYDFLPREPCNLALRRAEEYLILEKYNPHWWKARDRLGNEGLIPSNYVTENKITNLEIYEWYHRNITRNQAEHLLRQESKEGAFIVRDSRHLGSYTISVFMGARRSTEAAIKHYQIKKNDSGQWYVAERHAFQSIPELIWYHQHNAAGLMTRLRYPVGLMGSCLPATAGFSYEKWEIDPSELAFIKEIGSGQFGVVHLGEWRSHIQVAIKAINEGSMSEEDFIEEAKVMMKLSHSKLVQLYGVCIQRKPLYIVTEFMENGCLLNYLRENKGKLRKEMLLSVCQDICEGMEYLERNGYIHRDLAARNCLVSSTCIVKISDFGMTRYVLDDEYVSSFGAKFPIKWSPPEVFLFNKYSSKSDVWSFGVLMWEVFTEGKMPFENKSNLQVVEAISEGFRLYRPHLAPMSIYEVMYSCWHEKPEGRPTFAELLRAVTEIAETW
Protocol: as §1, §2, §3, §4, §5, §6

[20] = molecular target: T20, TSSK1B (Homo sapiens, UniProt Q9BXA7); settings: 100 nM, read-out: Percent Control
T20 construct: purchased DiscoverX (outsourced KINOMEscan)
Protocol: as §1, §2, §3, §4, §5, §6

[21] = molecular target: T21, TTK (Homo sapiens, UniProt P33981); settings: 100 nM, read-out: Percent Control
T21 construct: purchased DiscoverX (outsourced KINOMEscan)
T21 sequence (P33981 whole entry): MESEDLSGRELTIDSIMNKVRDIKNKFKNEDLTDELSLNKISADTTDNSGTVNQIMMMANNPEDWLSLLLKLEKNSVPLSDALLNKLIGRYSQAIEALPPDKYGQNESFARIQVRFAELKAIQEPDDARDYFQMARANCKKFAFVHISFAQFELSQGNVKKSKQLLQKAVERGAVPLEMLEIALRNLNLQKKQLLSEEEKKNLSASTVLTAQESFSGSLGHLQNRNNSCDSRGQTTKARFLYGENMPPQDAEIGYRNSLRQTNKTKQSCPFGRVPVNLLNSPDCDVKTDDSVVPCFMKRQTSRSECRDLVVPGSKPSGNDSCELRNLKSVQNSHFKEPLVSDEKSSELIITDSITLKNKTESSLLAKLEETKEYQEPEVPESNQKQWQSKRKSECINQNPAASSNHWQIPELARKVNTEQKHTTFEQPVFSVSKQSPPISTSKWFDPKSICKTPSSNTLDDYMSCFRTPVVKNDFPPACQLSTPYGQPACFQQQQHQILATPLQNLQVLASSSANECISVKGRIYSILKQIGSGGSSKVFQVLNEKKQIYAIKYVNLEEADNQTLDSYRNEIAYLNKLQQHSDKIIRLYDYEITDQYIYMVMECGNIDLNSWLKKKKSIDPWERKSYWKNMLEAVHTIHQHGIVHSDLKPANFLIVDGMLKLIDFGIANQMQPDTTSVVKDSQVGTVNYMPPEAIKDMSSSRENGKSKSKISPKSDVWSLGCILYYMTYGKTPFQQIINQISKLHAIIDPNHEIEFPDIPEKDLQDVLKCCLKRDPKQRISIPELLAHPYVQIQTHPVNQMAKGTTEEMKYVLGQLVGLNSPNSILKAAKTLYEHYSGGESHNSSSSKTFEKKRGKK
Protocol: as §1, §2, §3, §4, §5, §6

[22] = molecular target: T22, MUSK (Homo sapiens, UniProt O15146); settings: 100 nM, read-out: Percent Control
T22 construct: purchased DiscoveRx KINOMEscan (TRKA and CSF1R IC50 enzymes from Invitrogen)
Protocol: as §1, §2, §3, §4, §5, §6

[23] = molecular target: T23, PIM2 (Homo sapiens, UniProt Q9P1W9); settings: PIM2, 100 nM; read-out: Percent Control
T23 construct: purchased DiscoveRx KINOMEscan (TRKA and CSF1R IC50 enzymes from Invitrogen)
Protocol: as §1, §2, §3, §4, §5, §6

[24] = molecular target: T24, PLK1 (Homo sapiens, UniProt P53350); settings: PLK1, 100 nM; read-out: Percent Control
T24 construct: purchased DiscoveRx KINOMEscan (TRKA and CSF1R IC50 enzymes from Invitrogen)
Protocol: as §1, §2, §3, §4, §5, §6

[25] = molecular target: T25, PIK3CA (Homo sapiens, UniProt P42336); settings: 100 nM, read-out: Percent Control
T25 construct: purchased DiscoveRx KINOMEscan (TRKA and CSF1R IC50 enzymes from Invitrogen)
Protocol: as §1, §2, §3, §4, §5, §6

[26] = molecular target: T26, TAK1 (Homo sapiens, UniProt O43318); settings: TAK1, 100 nM; read-out: Percent Control
T26 construct: purchased DiscoveRx KINOMEscan (TRKA and CSF1R IC50 enzymes from Invitrogen)
T26 sequence (O43318 whole entry): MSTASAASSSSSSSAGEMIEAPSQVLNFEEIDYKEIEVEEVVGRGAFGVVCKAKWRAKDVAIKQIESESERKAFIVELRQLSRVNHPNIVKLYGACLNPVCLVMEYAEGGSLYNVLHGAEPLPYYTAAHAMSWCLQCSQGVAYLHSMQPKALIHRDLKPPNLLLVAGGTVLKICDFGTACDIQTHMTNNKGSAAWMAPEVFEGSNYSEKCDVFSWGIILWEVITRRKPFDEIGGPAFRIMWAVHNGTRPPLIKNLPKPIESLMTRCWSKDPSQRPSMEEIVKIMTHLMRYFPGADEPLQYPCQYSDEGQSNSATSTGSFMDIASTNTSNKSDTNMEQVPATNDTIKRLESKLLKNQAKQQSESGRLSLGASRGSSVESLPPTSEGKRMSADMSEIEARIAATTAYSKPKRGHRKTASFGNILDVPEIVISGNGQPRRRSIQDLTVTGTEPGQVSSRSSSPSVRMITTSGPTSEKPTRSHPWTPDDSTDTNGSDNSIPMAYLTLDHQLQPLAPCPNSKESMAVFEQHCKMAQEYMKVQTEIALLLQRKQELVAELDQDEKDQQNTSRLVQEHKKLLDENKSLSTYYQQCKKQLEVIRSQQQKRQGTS
Protocol: as §1, §2, §3, §4, §5, §6

[27] = molecular target: T27, PLK4 (Homo sapiens, UniProt O00444); settings: PLK4, 100 nM; read-out: Percent Control
T27 construct: purchased DiscoveRx KINOMEscan (TRKA and CSF1R IC50 enzymes from Invitrogen)
Protocol: as §1, §2, §3, §4, §5, §6

[28] = molecular target: T28, ULK1 (Homo sapiens, UniProt O75385); settings: ULK1, 100 nM; read-out: Percent Control
T28 construct: purchased DiscoverX (outsourced KINOMEscan)
Protocol: as §1, §2, §3, §4, §5, §6

[29] = molecular target: T29, S6K1 (Homo sapiens, UniProt P23443); settings: S6K1, 100 nM; read-out: Percent Control
T29 construct: purchased DiscoveRx KINOMEscan (TRKA and CSF1R IC50 enzymes from Invitrogen)
Protocol: as §1, §2, §3, §4, §5, §6

[30] = molecular target: T30, ACVR1 (Homo sapiens, UniProt Q04771); settings: ACVR1, 100 nM; read-out: Percent Control
T30 construct: purchased DiscoveRx KINOMEscan (TRKA and CSF1R IC50 enzymes from Invitrogen)
Protocol: as §1, §2, §3, §4, §5, §6

SMILES: CC(C)(C)c1cc(NC(=O)Cc2ccc(-n3cnc4cc(-c5ccc(S(C)(=O)=O)cc5)ccc43)cc2)no1 [NPA101.3]
- remaining binding at 0.1 µM [1]: 100%
- binding (% bound) [2]: > 90 % bound
- remaining binding at 0.1 µM ([2]; TRKC, read-out: Percent Control): 0.25%
- remaining binding at 0.1 µM [3]: 28%
- binding (% bound) [4]: > 90 % bound
- remaining binding at 0.1 µM ([4]; CSF1R, read-out: Percent Control): 0.05%
- remaining binding at 0.1 µM [5]: 86%
- remaining binding at 0.1 µM [6]: 92%
- remaining binding at 0.1 µM [7]: 100%
- remaining binding at 0.1 µM [8]: 39%
- remaining binding at 0.1 µM [9]: 94%
- remaining binding at 0.1 µM [10]: 86%
- remaining binding at 0.1 µM [11]: 97%
- remaining binding at 0.1 µM [12]: 96%
- remaining binding at 0.1 µM [13]: 98%
- remaining binding at 0.1 µM [14]: 100%
- remaining binding at 0.1 µM [15]: 100%
- remaining binding at 0.1 µM [16]: 82%
- remaining binding at 0.1 µM [17]: 98%
- remaining binding at 0.1 µM [18]: 100%
- remaining binding at 0.1 µM [19]: 85%
- remaining binding at 0.1 µM [20]: 96%
- remaining binding at 0.1 µM [21]: 66%
- remaining binding at 0.1 µM [22]: 23%
- remaining binding at 0.1 µM [23]: 94%
- remaining binding at 0.1 µM [24]: 99%
- remaining binding at 0.1 µM [25]: 100%
- remaining binding at 0.1 µM [26]: 13%
- remaining binding at 0.1 µM [27]: 100%
- remaining binding at 0.1 µM [28]: 100%
- remaining binding at 0.1 µM [29]: 100%
- remaining binding at 0.1 µM [30]: 92%
